Values quoted from earlier work, collected in US20070092586A1, “Compositions and methods for the administration psychotropic drugs which modulate body weight” (Alamo Pharmaceuticals, priority 2005, published 2007).

Experiments:
[1] = lithium maintenance therapy; J. Clin. Psychopharmacol. 1988

Row | Structure (SMILES) | increase in body weight (mean) (59 patients taking clozapine for an unstated period, P<0.05, Gerlach et al. 1989) | mean increase in body weight (over 21 months, patients who responded to clozapine and remained clinically stable, Jalenques et al. 1996) | patients with weight gains of over 10 kg [1]
1 | CN1CCN(C2=Nc3cc(Cl)ccc3Nc3ccccc32)CC1 [clozapine, 8-chloro-11-(4-methyl-1-piperazinyl)-5H-dibenzo[b,e] [1,4] diazepine] | 2.8 kg | 12.4 kg | 
2 | O=C([O-])[O-].[Li+].[Li+] [lithium] |  |  | 20%
